{"source": "paper PMC5415848", "about": "“Structural basis of molecular recognition of helical histone H3 tail by PHD finger domains” (Biochemical Journal, 2017)", "type_in_all_cases": "binding", "key": {"BAZ2A PHD": {"target": "T1, BAZ2A PHD (Homo sapiens, UniProt Q9UIF9)", "T1 construct": "The small PHDs (∼6.5 kDa) of both BAZ2A and BAZ2B; made in house", "T1 sequence (Q9UIF9 1676-1726 limits assumed)": "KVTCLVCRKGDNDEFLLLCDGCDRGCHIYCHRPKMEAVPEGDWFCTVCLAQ", "test": "ITC, H3 peptides titrated into BAZ2A PHD (WT)", "settings": "for effect on binding, in words: compared with H3 10-mer WT or the peptide named in the words", "experimental": "(§1) All calorimetric experiments were performed on a MicroCal iTC200 microcalorimeter (GE Healthcare) at 25°C in a buffer containing 20 mM HEPES at a pH of 8, 150 mM NaCl and 0.5 mM Tris(2-carboxyethyl) phosphine. All ITC experiments were carried out titrating peptide solutions (1.5–3 mM) into protein solutions (80–120 µM) loaded in the calorimeter cell, performing one first injection of 0.4 µl followed by 19 injections of 2 µl. The data were analyzed using the MicroCal™ software package subtracting the data from an independent titration of peptide into buffer to account for heat of dilution, and then fitted using a single-binding site model. Protein concentration was determined by measuring absorbance at 280 nm using the following extinction coefficients: BAZ2A PHD ε280 = 6990 M^−1 cm^−1 and BAZ2B PHD ε280 = 8480 M^−1 cm^−1. Lyophilized peptides were weighted and dissolved in an appropriate volume of buffer to obtain the desired concentration."}, "BAZ2B PHD": {"target": "T2, BAZ2B PHD (Homo sapiens, UniProt Q9UIF8)", "T2 construct": "The small PHDs (∼6.5 kDa) of both BAZ2A and BAZ2B; made in house", "T2 sequence (Q9UIF8 1931-1981 limits assumed)": "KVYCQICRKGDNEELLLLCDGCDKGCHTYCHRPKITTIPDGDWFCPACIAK", "test": "ITC, H3 peptides titrated into BAZ2B PHD (WT)", "settings": "for effect on binding, in words: compared with H3 10-mer WT", "experimental": "as §1"}, "BAZ2B PHD E1944K": {"target": "T3, BAZ2B PHD E1944K (Homo sapiens, UniProt Q9UIF8, E1944K)", "T3 construct": "Mutations were introduced into BAZ2A/B PHD fingers by polymerase chain reaction (PCR) amplification of the original construct; made in house", "T3 sequence (Q9UIF8 1931-1981 E1944K limits assumed)": "T2 sequence (Q9UIF8 1931-1981 limits assumed) with E14K", "test": "ITC, H3 10-mer into BAZ2B PHD E1944K mutant", "settings": "ITC 25°C", "experimental": "(§2) Mutations were introduced into BAZ2A/B PHD fingers by polymerase chain reaction (PCR) amplification of the original construct using Phusion DNA Polymerase (Thermo Fisher Scientific) and a specific pair of primers for each mutation (Supplementary Table S4). The PCR amplification product was incubated with Dpn I (New England BioLabs) for 1 h at 37°C to digest the parental DNA strands and then used to transform Escherichia coli DH5α cells. Transformed cells were grown on lysogeny broth (LB) agar plates supplemented with 100 µg/ml ampicillin for 16 h at 37°C. Single colonies were picked to inoculate 5 ml of LB plus 100 µg/ml ampicillin and grown for 16 h at 37°C. […]\n(§3) All calorimetric experiments were performed on a MicroCal iTC200 microcalorimeter (GE Healthcare) at 25°C in a buffer containing 20 mM HEPES at a pH of 8, 150 mM NaCl and 0.5 mM Tris(2-carboxyethyl) phosphine. […] The data were analyzed using the MicroCal™ software package subtracting the data from an independent titration of peptide into buffer to account for heat of dilution, and then fitted using a single-binding site model. Protein concentration was determined by measuring absorbance at 280 nm using the following extinction coefficients: BAZ2A PHD ε280 = 6990 M^−1 cm^−1 and BAZ2B PHD ε280 = 8480 M^−1 cm^−1. […]"}, "BAZ2A PHD D1688N/E1689Q": {"target": "T4, BAZ2A PHD D1688N/E1689Q (Homo sapiens, UniProt Q9UIF9, D1688N/E1689Q)", "T4 construct": "Mutations were introduced into BAZ2A/B PHD fingers by polymerase chain reaction (PCR) amplification of the original construct; made in house", "T4 sequence (Q9UIF9 1676-1726 D1688N/E1689Q limits assumed)": "T1 sequence (Q9UIF9 1676-1726 limits assumed) with D13N, E14Q", "test": "ITC, H3 10-mer into BAZ2A PHD D1688N/E1689Q double mutant", "settings": "ITC 25°C, triplicate, mean ± s.e.m.; N fixed to 1 in fit; SEM", "experimental": "as §2, §3"}, "BAZ2A PHD E1689K": {"target": "T5, BAZ2A PHD E1689K (Homo sapiens, UniProt Q9UIF9, E1689K)", "T5 construct": "Mutations were introduced into BAZ2A/B PHD fingers by polymerase chain reaction (PCR) amplification of the original construct; made in house", "T5 sequence (Q9UIF9 1676-1726 E1689K limits assumed)": "T1 sequence (Q9UIF9 1676-1726 limits assumed) with E14K", "test": "ITC, H3 10-mer into BAZ2A PHD E1689K mutant", "settings": "ITC 25°C, duplicate, mean ± s.e.m.; SEM", "experimental": "as §2, §3"}, "BAZ2A PHD E1689Q": {"target": "T6, BAZ2A PHD E1689Q (Homo sapiens, UniProt Q9UIF9, E1689Q)", "T6 construct": "Mutations were introduced into BAZ2A/B PHD fingers by polymerase chain reaction (PCR) amplification of the original construct; made in house", "T6 sequence (Q9UIF9 1676-1726 E1689Q limits assumed)": "T1 sequence (Q9UIF9 1676-1726 limits assumed) with E14Q", "test": "ITC, H3 10-mer into BAZ2A PHD E1689Q mutant", "settings": "ITC 25°C, triplicate, mean ± s.e.m.; SEM", "experimental": "as §2, §3"}, "BAZ2B PHD E1944Q": {"target": "T7, BAZ2B PHD E1944Q (Homo sapiens, UniProt Q9UIF8, E1944Q)", "T7 construct": "Mutations were introduced into BAZ2A/B PHD fingers by polymerase chain reaction (PCR) amplification of the original construct; made in house", "T7 sequence (Q9UIF8 1931-1981 E1944Q limits assumed)": "T2 sequence (Q9UIF8 1931-1981 limits assumed) with E14Q", "test": "ITC, H3 10-mer into BAZ2B PHD E1944Q mutant", "settings": "ITC 25°C, triplicate, mean ± s.e.m.; N fixed to 1 in fit; SEM", "experimental": "as §2, §3"}, "[1]": {"settings": "ITC, 25°C, 20 mM HEPES pH 8, 150 mM NaCl, 0.5 mM TCEP, peptide 1.5–3 mM into protein 80–120 µM, single-site fit, error from fit (Table 2), read-out: KD"}, "[2]": {"settings": "KD, ITC, 25°C, 20 mM HEPES pH 8, 150 mM NaCl, 0.5 mM TCEP, peptide 1.5–3 mM into protein 80–120 µM, single-site fit, error from fit (Table 2)"}}, "note": "Substitutions are numbered along the chain they refer to. Read-outs that look alike come from different tables or passages of the source. Residues, ends and D or L forms follow the SMILES beside them. No end group written: not given here."}
{"compound": "ARTAATARKS-NH2 [ARTAATARKS]", "values": [{"measurement": "Kd", "setting": "BAZ2A PHD; [1]", "result": "12.1 ± 0.3", "unit": "µM"}, {"measurement": "Kd", "setting": "BAZ2B PHD; [1]", "result": "2.6 ± 0.1", "unit": "µM"}]}
{"compound": "C[C@H](N)C(=O)N[C@@H](CCCNC(=N)N)C(=O)N[C@H](C(=O)N[C@@H](CCCCN)C(=O)N[C@@H](CCC(N)=O)C(=O)N[C@H](C(=O)N[C@@H](C)C(=O)N[C@@H](CCCNC(=N)N)C(=O)N[C@@H](CCCCN)C(=O)N[C@@H](CO)C(N)=O)[C@@H](C)O)[C@@H](C)O", "note": "[ARTKQTARKS]", "values": [{"measurement": "KD", "setting": "BAZ2B PHD E1944K", "result": "completely abrogated binding"}, {"measurement": "Kd", "setting": "BAZ2B PHD E1944K", "result": "> 1000", "unit": "µM"}, {"measurement": "Kd", "setting": "BAZ2A PHD; KD, BAZ2A PHD wt, ITC 25°C, triplicate, mean ± s.e.m. (Table 3), SEM", "result": "48 ± 2", "unit": "µM"}, {"measurement": "Kd", "setting": "BAZ2A PHD; [2]", "result": "51 ± 2", "unit": "µM"}, {"measurement": "Kd", "setting": "BAZ2A PHD D1688N/E1689Q", "result": "810 ± 50", "unit": "µM"}, {"measurement": "Kd", "setting": "BAZ2A PHD E1689K", "result": "116 ± 6", "unit": "µM"}, {"measurement": "Kd", "setting": "BAZ2B PHD; KD, BAZ2B PHD wt, ITC 25°C, triplicate, mean ± s.e.m. (Table 3), SEM", "result": "47 ± 2", "unit": "µM"}, {"measurement": "Kd", "setting": "BAZ2B PHD; [2]", "result": "40 ± 0.5", "unit": "µM"}, {"measurement": "Kd", "setting": "BAZ2A PHD E1689Q", "result": "83 ± 7", "unit": "µM"}, {"measurement": "Kd", "setting": "BAZ2B PHD E1944Q", "result": "660 ± 60", "unit": "µM"}]}
{"compound": "C[C@H](N)C(=O)N[C@@H](CCCNC(=N)N)C(=O)N[C@H](C(=O)N[C@@H](CCCCN)C(=O)N[C@@H](C)C(=O)N[C@H](C(=O)N[C@@H](C)C(=O)N[C@@H](CCCNC(=N)N)C(=O)N[C@@H](CCCCN)C(=O)N[C@@H](CO)C(N)=O)[C@@H](C)O)[C@@H](C)O", "note": "[ARTKATARKS]", "values": [{"measurement": "Kd", "setting": "BAZ2A PHD; [1]", "result": "9.3 ± 0.2", "unit": "µM"}, {"measurement": "Kd", "setting": "BAZ2B PHD; [1]", "result": "7 ± 0.2", "unit": "µM"}]}
{"compound": "C[C@H](N)C(=O)N[C@@H](CCCNC(=N)N)C(=O)N[C@H](C(=O)N[C@@H](CCCCN)C(=O)N[C@@H](CCC(N)=O)C(=O)N[C@@H](C)C(=O)N[C@@H](C)C(=O)N[C@@H](CCCNC(=N)N)C(=O)N[C@@H](CCCCN)C(=O)N[C@@H](CO)C(N)=O)[C@@H](C)O", "note": "[ARTKQAARKS]", "values": [{"measurement": "Kd", "setting": "BAZ2A PHD; [1]", "result": "55 ± 2", "unit": "µM"}, {"measurement": "Kd", "setting": "BAZ2B PHD; [1]", "result": "44.6 ± 0.8", "unit": "µM"}]}
{"compound": "C[C@H](N)C(=O)N[C@@H](CCCNC(=N)N)C(=O)N[C@H](C(=O)N[C@@H](C)C(N)=O)[C@@H](C)O", "note": "[ARTA] (H-ARTA-NH2)", "values": [{"measurement": "Kd", "setting": "BAZ2A PHD; [1]", "result": "56 ± 2", "unit": "µM"}]}
{"compound": "ARTGGTARKS-NH2 [ARTGGTARKS]", "values": [{"measurement": "Kd", "setting": "BAZ2A PHD; [1]", "result": "143 ± 7", "unit": "µM"}, {"measurement": "Kd", "setting": "BAZ2B PHD; [1]", "result": "166 ± 8", "unit": "µM"}]}
{"compound": "C[C@H](N)C(=O)N[C@@H](CCCNC(=N)N)C(=O)N[C@H](C(=O)N[C@@H](CCCCN)C(=O)N[C@@H](CCC(N)=O)C(N)=O)[C@@H](C)O", "note": "[ARTKQ]", "values": [{"measurement": "Kd", "setting": "BAZ2A PHD; [1]", "result": "210 ± 30", "unit": "µM"}, {"measurement": "Kd", "setting": "BAZ2B PHD; [1]", "result": "190 ± 25", "unit": "µM"}]}
{"compound": "AATKQTARKS-NH2 [AATKQTARKS]", "values": [{"measurement": "Kd", "setting": "BAZ2A PHD; [1]", "result": "> 1000", "unit": "µM"}, {"measurement": "effect on binding, in words", "setting": "BAZ2A PHD; ITC", "result": "abolished binding"}, {"measurement": "Kd", "setting": "BAZ2B PHD; [1]", "result": "> 1000", "unit": "µM"}, {"measurement": "effect on binding, in words", "setting": "BAZ2B PHD; ITC", "result": "abolished binding"}]}
{"compound": "C[C@H](N)C(=O)N[C@@H](CCCNC(=N)N)C(=O)N[C@H](C(=O)N[C@@H](C)C(=O)N[C@@H](CCC(N)=O)C(=O)N[C@H](C(=O)N[C@@H](C)C(=O)N[C@@H](CCCNC(=N)N)C(=O)N[C@@H](CCCCN)C(=O)N[C@@H](CO)C(N)=O)[C@@H](C)O)[C@@H](C)O", "note": "[ARTAQTARKS]", "values": [{"measurement": "Kd", "setting": "BAZ2A PHD; [1]", "result": "42 ± 2", "unit": "µM"}, {"measurement": "Kd", "setting": "BAZ2B PHD; [1]", "result": "8.5 ± 0.2", "unit": "µM"}]}
{"compound": "C[C@H](N)C(=O)N[C@@H](CCCNC(=N)N)C(=O)N[C@H](C(=O)N[C@@H](CCCCN)C(N)=O)[C@@H](C)O", "note": "[ARTK] (H-ARTK-NH2)", "values": [{"measurement": "Kd", "setting": "BAZ2A PHD; [1]", "result": "100 ± 4", "unit": "µM"}]}
{"compound": "ARAKQTARKS-NH2 [ARAKQTARKS]", "values": [{"measurement": "KD", "setting": "BAZ2A PHD; ITC, 25°C, 20 mM HEPES pH 8, 150 mM NaCl, 0.5 mM TCEP, peptide 1.5–3 mM into protein 80–120 µM, single-site fit, error from fit (Table 2)", "result": "No binding"}, {"measurement": "effect on binding, in words", "setting": "BAZ2A PHD; ITC", "result": "abolished binding"}, {"measurement": "Kd", "setting": "BAZ2B PHD; [1]", "result": "> 5000", "unit": "µM"}, {"measurement": "effect on binding, in words", "setting": "BAZ2B PHD; ITC", "result": "abolished binding"}]}
